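GI50: concentration for 50% inhibition of growth. At the TGI there is no net growth.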
Assays:
Assay in all cases: growth of human tumour cells (NCI), 384-well format
NCI-H23 lung = system: NCI-H23 lung
SN12C renal = system: SN12C renal
MDA-MB-468 breast = system: MDA-MB-468 breast
KM12 colon = system: KM12 colon
HCT-116 colon = system: HCT-116 colon
NCI/ADR-RES ovarian = system: NCI/ADR-RES ovarian
HCC-2998 colon = system: HCC-2998 colon
M14 melanoma = system: M14 melanoma
RXF 393 renal = system: RXF 393 renal
CCRF-CEM leukemia = system: CCRF-CEM leukemia
NCI-H322M lung = system: NCI-H322M lung
K-562 leukemia = system: K-562 leukemia
786-0 renal = system: 786-0 renal
HS 578T breast = system: HS 578T breast
UACC-62 melanoma = system: UACC-62 melanoma
HOP-62 NSCLC = system: HOP-62 NSCLC
MALME-3M melanoma = system: MALME-3M melanoma
A549 NSCLC = system: A549 NSCLC
UACC-257 melanoma = system: UACC-257 melanoma
EKVX NSCLC = system: EKVX NSCLC
RPMI-8226 leukemia = system: RPMI-8226 leukemia
MOLT-4 leukemia = system: MOLT-4 leukemia
HT29 colon = system: HT29 colon
SK-MEL-2 melanoma = system: SK-MEL-2 melanoma
CAKI-1 renal = system: CAKI-1 renal
SK-MEL-28 melanoma = system: SK-MEL-28 melanoma
SK-OV-3 ovarian = system: SK-OV-3 ovarian
TK-10 renal = system: TK-10 renal
PC-3 prostate = system: PC-3 prostate
MDA-MB-435 melanoma = system: MDA-MB-435 melanoma
U251 glioblastoma = system: U251 glioblastoma
NCI-H460 NSCLC = system: NCI-H460 NSCLC
IGROV1 ovarian = system: IGROV1 ovarian
HOP-92 NSCLC = system: HOP-92 NSCLC
SF-295 CNS = system: SF-295 CNS
COLO 205 colon = system: COLO 205 colon
SNB-75 CNS = system: SNB-75 CNS
HCT-15 colon = system: HCT-15 colon
SF-268 CNS = system: SF-268 CNS
SW-620 colon = system: SW-620 colon
SF-539 CNS = system: SF-539 CNS
NCI-H226 lung = system: NCI-H226 lung
DU-145 prostate = system: DU-145 prostate
SNB-19 CNS = system: SNB-19 CNS
MCF7 breast = system: MCF7 breast
LOX IMVI melanoma = system: LOX IMVI melanoma
NCI-H522 lung = system: NCI-H522 lung
OVCAR-8 ovarian = system: OVCAR-8 ovarian
OVCAR-4 ovarian = system: OVCAR-4 ovarian
SK-MEL-5 melanoma = system: SK-MEL-5 melanoma
HL-60(TB) leukemia = system: HL-60(TB) leukemia
A498 renal = system: A498 renal
OVCAR-3 ovarian = system: OVCAR-3 ovarian
BT-549 breast = system: BT-549 breast
ACHN renal = system: ACHN renal

With `CC/C(=C(\c1ccccc1)c1ccc(OCCNC)cc1)c1ccccc1` the GI50 (NCI-H23 lung) was 2130 nM, the TGI (NCI-H23 lung) was 3670 nM and the GI50 (SN12C renal) was 1850 nM. The TGI (SN12C renal) was 3420 nM, the GI50 (MDA-MB-468 breast) was 2390 nM and the TGI (MDA-MB-468 breast) was 3870 nM. The GI50 (KM12 colon) was 1990 nM, the TGI (KM12 colon) was 3470 nM and the GI50 (HCT-116 colon) was 1970 nM. It also gave a TGI (HCT-116 colon) of 3450 nM, a GI50 (NCI/ADR-RES ovarian) of 2200 nM and a TGI (NCI/ADR-RES ovarian) of 3910 nM. The GI50 (HCC-2998 colon) was 1660 nM, the TGI (HCC-2998 colon) was 3040 nM and the GI50 (M14 melanoma) was 2070 nM. For the same molecule, the TGI (M14 melanoma) was 3520 nM, the GI50 (RXF 393 renal) was 2020 nM and the TGI (RXF 393 renal) was 3470 nM. The GI50 (CCRF-CEM leukemia) was 1730 nM, the TGI (CCRF-CEM leukemia) was 3130 nM and the GI50 (NCI-H322M lung) was 2160 nM. For the same molecule, the TGI (NCI-H322M lung) was 3700 nM, the GI50 (K-562 leukemia) was 1830 nM and the TGI (K-562 leukemia) was 3250 nM. It also gave a GI50 ([…]-0 renal) of 1790 nM, a TGI (786-0 renal) of 3200 nM and a GI50 (HS 578T breast) of 1900 nM. It also gave a TGI (HS 578T breast) of 3320 nM, a GI50 (UACC-62 melanoma) of 2160 nM and a TGI (UACC-62 melanoma) of 3630 nM. The GI50 (HOP-62 NSCLC) was 2350 nM, the TGI (HOP-62 NSCLC) was 3830 nM and the GI50 (MALME-3M melanoma) was 2150 nM. It also gave a TGI (MALME-3M melanoma) of 3610 nM, a GI50 (A549 NSCLC) of 1710 nM and a TGI (A549 NSCLC) of 3160 nM. The GI50 (UACC-257 melanoma) was 2300 nM, the TGI (UACC-257 melanoma) was 3770 nM and the GI50 (EKVX NSCLC) was 1920 nM. The TGI (EKVX NSCLC) was 3670 nM, the GI50 (RPMI-8226 leukemia) was 2290 nM and the TGI (RPMI-8226 leukemia) was 3760 nM. It also gave a GI50 (MOLT-4 leukemia) of 1490 nM, a TGI (MOLT-4 leukemia) of 2820 nM and a GI50 (HT29 colon) of 1770 nM. It also gave a TGI (HT29 colon) of 3190 nM, a GI50 (SK-MEL-2 melanoma) of 1860 nM and a TGI (SK-MEL-2 melanoma) of 3280 nM. It also gave a GI50 (CAKI-1 renal) of 1530 nM, a TGI (CAKI-1 renal) of 2920 nM and a GI50 (SK-MEL-28 melanoma) of 2070 nM. The TGI (SK-MEL-28 melanoma) was 3520 nM, the GI50 (SK-OV-3 ovarian) was 1870 nM and the TGI (SK-OV-3 ovarian) was 3300 nM. It also gave a GI50 (TK-10 renal) of 2120 nM, a TGI (TK-10 renal) of 4070 nM and a GI50 (PC-3 prostate) of 1970 nM. For the same molecule, the TGI (PC-3 prostate) was 3480 nM, the GI50 (MDA-MB-435 melanoma) was 2060 nM and the TGI (MDA-MB-435 melanoma) was 3500 nM. It also gave a GI50 (U251 glioblastoma) of 2160 nM, a TGI (U251 glioblastoma) of 3640 nM and a GI50 (NCI-H460 NSCLC) of 1980 nM. For the same molecule, the TGI (NCI-H460 NSCLC) was 3510 nM, the GI50 (IGROV1 ovarian) was 1860 nM and the TGI (IGROV1 ovarian) was 3350 nM. For the same molecule, the GI50 (HOP-92 NSCLC) was 2050 nM, the TGI (HOP-92 NSCLC) was 3510 nM and the GI50 (SF-295 CNS) was 1880 nM. It also gave a TGI (SF-295 CNS) of 3300 nM, a GI50 (COLO 205 colon) of 1940 nM and a TGI (COLO 205 colon) of 3400 nM. It also gave a GI50 (SNB-75 CNS) of 2060 nM, a TGI (SNB-75 CNS) of 3550 nM and a GI50 (HCT-15 colon) of 1820 nM. For the same molecule, the TGI (HCT-15 colon) was 3270 nM, the GI50 (SF-268 CNS) was 2360 nM and the TGI (SF-268 CNS) was 3930 nM. The GI50 (SW-620 colon) was 1980 nM, the TGI (SW-620 colon) was 3460 nM and the GI50 (SF-539 CNS) was 2100 nM. The TGI (SF-539 CNS) was 3560 nM, the GI50 (NCI-H226 lung) was 2150 nM and the TGI (NCI-H226 lung) was 4650 nM. For the same molecule, the GI50 (DU-145 prostate) was 2260 nM, the TGI (DU-145 prostate) was 4240 nM and the GI50 (SNB-19 CNS) was 2140 nM. For the same molecule, the TGI (SNB-19 CNS) was 3640 nM, the GI50 (MCF7 breast) was 1200 nM and the TGI (MCF7 breast) was 2610 nM. For the same molecule, the GI50 (LOX IMVI melanoma) was 1790 nM, the TGI (LOX IMVI melanoma) was 3210 nM and the GI50 (NCI-H522 lung) was 1930 nM. It also gave a TGI (NCI-H522 lung) of 3360 nM, a GI50 (OVCAR-8 ovarian) of 1860 nM and a TGI (OVCAR-8 ovarian) of 3320 nM. The GI50 (OVCAR-4 ovarian) was 2100 nM, the TGI (OVCAR-4 ovarian) was 3680 nM and the GI50 (SK-MEL-5 melanoma) was 1690 nM. For the same molecule, the TGI (SK-MEL-5 melanoma) was 3080 nM, the GI50 (HL-60(TB) leukemia) was 1580 nM and the TGI (HL-60(TB) leukemia) was 2940 nM. The GI50 (A498 renal) was 1720 nM, the TGI (A498 renal) was 3100 nM and the GI50 (OVCAR-3 ovarian) was 1920 nM. For the same molecule, the TGI (OVCAR-3 ovarian) was 3400 nM, the GI50 (BT-549 breast) was 1820 nM and the TGI (BT-549 breast) was 3260 nM. It also gave a GI50 (ACHN renal) of 1850 nM and a TGI (ACHN renal) of 3300 nM.

— PubChem BioAssay (NCI)
